Reference: patent US10376453B1, “Composition for promoting hair growth containing novel pantetheine derivative” (KOREA INSTITUTE OF OCEAN SCIENCE AND TECHNOLOGY, priority 2016, dated 2019)

Test system: dermal papilla cells
Experiment: Measurement of viability of dermal papilla cells (MTT); promotion of growth of dermal papilla cells
Format: cell-based, human
Settings: 24 hours culture, MTT absorbance at 570 nm, Control = 100
Description: For cell culture, Dulbecco's Modified Eagle Medium (DMEM), fetal bovine serum (FBS), 0.25% trypsin-1 mM EDTA, and penicillin-streptomycin were used, and dermal papilla cells were cultured at 37° C. in a humidified 5% CO2. The medium was replaced twice a week, and the cultured dermal papilla cells were washed with PBS within 6-7 days. Next, the attached cells were separated by 0.05% trypsin-0.02% EDTA, centrifuged, and then subcultured for experiments. Specifically, 200 μl of dermal papilla cells were dispensed into each well of a 96-well plate at a density of 1×10^4 cells/well, and cultured under the conditions of 37° C. and 5% CO2 for 18 hours so as to be attached to each well. After 18 hours, the medium was removed, and 200 μl of samples was added to each well having the cells attached thereto, followed by culture for 24 hours. After the medium was removed, 100 μl of a solution of 3-(4,5-dimethylthiazol)-2,5-diphenyltetrazoliumbromide(MTT), prepared by dissolving MTT in PBS at a concentration of 500 μg/ml, was added to the cultured cells, followed by culture for 4 hours under the same conditions as described above. The formed formazan crystal was dissolved in DMSO, and the absorbance at 570 nm was measured using an ELISA reader. The measured OD values ranging from 0.00 to 3.50 were used for the experimental results. The sample for treatment of the cells was used at concentrations of 0.5, 5 and 50 μM.

## isobutyl formate-D-pantetheine [S6]
0.5 μM sample
  Effect on the growth of dermal papilla cells: 130.57
5 μM sample
  Effect on the growth of dermal papilla cells: 112.94
50 μM sample
  Effect on the growth of dermal papilla cells: 135.95

## CCC(C)C(=O)SCCNC(=O)CCNC(=O)[C@H](O)C(C)(C)CO (stereo partly drawn) [S1, 2-methylbutyryl-D-pantetheine]
0.5 μM sample
  Effect on the growth of dermal papilla cells: 113.31
5 μM sample
  Effect on the growth of dermal papilla cells: 129.65
50 μM sample
  Effect on the growth of dermal papilla cells: 139.19

## C=CCCCCCCCCC(=O)SCCNC(=O)CCNC(=O)[C@H](O)C(C)(C)CO [S5, 10-undecenoyl-D-pantetheine]
0.5 μM sample
  Effect on the growth of dermal papilla cells: 111.24
5 μM sample
  Effect on the growth of dermal papilla cells: 93.01
50 μM sample
  Effect on the growth of dermal papilla cells: 101.62

## CC(C)CC(=O)SCCNC(=O)CCNC(=O)[C@H](O)C(C)(C)CO [S2, 3-methylbutyryl-D-pantetheine]
0.5 μM sample
  Effect on the growth of dermal papilla cells: 121.04
5 μM sample
  Effect on the growth of dermal papilla cells: 114.65
50 μM sample
  Effect on the growth of dermal papilla cells: 121.28

## cinnamoyl-D-pantetheine [S3]
0.5 μM sample
  Effect on the growth of dermal papilla cells: 119.77
5 μM sample
  Effect on the growth of dermal papilla cells: 122.38
50 μM sample
  Effect on the growth of dermal papilla cells: 133.33

## CC(C)(CO)[C@@H](O)C(=O)NCCC(=O)NCCSC(=O)c1ccc(O)cc1O [S7, 2,4-dihydroxybenzoyl-D-pantetheine]
0.5 μM sample
  Effect on the growth of dermal papilla cells: 95.73
5 μM sample
  Effect on the growth of dermal papilla cells: 97.32
50 μM sample
  Effect on the growth of dermal papilla cells: 93.12

## C=CCCC(=O)SCCNC(=O)CCNC(=O)[C@H](O)C(C)(C)CO [S4, 4-pentenoyl-D-pantetheine]
0.5 μM sample
  Effect on the growth of dermal papilla cells: 116.88
5 μM sample
  Effect on the growth of dermal papilla cells: 122.89
50 μM sample
  Effect on the growth of dermal papilla cells: 111.97

## Nc1cc(N2CCCCC2)nc(N)[n+]1[O-] [minoxidil, reference compound]
0.5 μM sample
  Effect on the growth of dermal papilla cells: 146.66
5 μM sample
  Effect on the growth of dermal papilla cells: 146.52
50 μM sample
  Effect on the growth of dermal papilla cells: 140.29
